Experimental data reported in patent US4225610A, “Immunoactivators derived from amino thiazoles” (Pierre Fabre, S.A., priority 1977, dated 1980).
“And” between values parts separate entries of the source, which are not always exact repeats. Equal entries are not always repeated. “Also recorded” adds a separate entry of the source. Where two headings read alike, the source gives them in different places.

Columns and labels:
mice = assay: in vivo; format: in vivo
Excerpt: (§1) The acute toxicity after a single administration of the products per os was studied in mice.
(§2) The compounds were placed in suspension in a mixture of Tween 80™ and distilled water. […] Exper.

in vivo = format: in vivo; details: mouse, in vivo, po; mice, per os, single administration, 7 days
Excerpt: as §1, §2

[1] = system: Delayed Hypersensitivity Pleurisy to Bordetella pertussis; assay: Pleurisy of delayed hypersensitivity to Bordetella pertussis in rats after chronic treatment; format: in vivo; details: for Action on the volume of exudate / Action on the number of mononuclears / Action on the number of polynuclears / Action on the total number of leukocytes: 5 mg/kg p.o.; for Delayed hypersensitivity pleural inflammation (in words) / Action compared with levamisole (in words): orally, chronic treatment, 5 mg/kg/administration; for Action compared with levamisole (in words): both treatment procedures
Experimental: II--Action on Pleurisy of Delayed Hypersensitivity to Bordetella pertussis in Rats After Chronic Treatment […]
Male rats weighing 280-320 g are used. The suspension of Bordetella pertussis used is the pertussis vaccine of the Pasteur Institute (5×10^9 killed bacilli per ml). The Bordetella pertussis suspension is mixed (V/V: 50/50) with Freund's complete adjuvant. 0.2 ml of this mixture is injected intramuscularly into each thigh of the rat.
6 days later, 0.1 ml of the Bordetella pertussis suspension is injected into the pleural cavity. 48 hours later, the pleural exudate formed is removed and measured. The total number of leukocytes and the number of mononuclears and polynuclears of the exudate are determined.
The products studied were administered chronically in accordance with two procedures:
Procedure 1: The treatment commences on the day of the sensitization and continues at the rate of one administration per day until the challenge injection. On the day of the latter the compounds are given twice: one administration before and one after the intrapleural injection of the antigen. The animals are treated a last time 24 hours later.
Procedure 2: The treatment commences three weeks before the sensitization. During these three weeks, the products are given at the rate of 5 times per week. The treatment is then continued as indicated above in Procedure 1.

[2] = system: cutaneous delayed hypersensitivity reaction to PPD; format: in vivo, albino guinea pigs
[3] = Chronic toxicity per os for two months in rats; details: rat, in vivo, po, read-out: Dose not resulting in any toxic phenomenon
[4] = 200 mg/kg per os, 5 mice per lot
[5] = 1000 mg/kg per os, 5 mice per lot

**Q.** For `Nc1nc(-c2ccccc2)cs1` [F 1653, 4-phenyl 2-amino thiazole], which “Solubility in dimethyl pyrrolidone” value (Solubility; dimethyl pyrrolidone) is on record?
**A.** 20%

**Q.** What about the Solubility in ethanol (Solubility) of the same molecule?
**A.** 1%

**Q.** What about the Solubility in water (Solubility) of the same molecule?
**A.** insoluble

**Q.** What about the “Mortality at the end of 7 days” value (mice; 100 mg/kg per os, 5 mice per lot) of the same molecule?
**A.** 0

**Q.** And the “Mortality at the end of 7 days” value (mice; [4])?
**A.** 5

**Q.** And the LD50 at 168 h (in vivo)?
**A.** 140 mg/kg

**Q.** Which results are given for `Nc1nc(-c2ccc(Cl)cc2)cs1` [F 1654, 4-Parachloro-phenyl 2-amino thiazole]?
**A.** Solubility in ethanol (Solubility): 15%; Solubility in water (Solubility): insoluble; Action on the volume of exudate ([1]; Treatment procedure 2): -41%; Delayed hypersensitivity pleural inflammation (in words) [1]: reduce the delayed hypersensitivity pleural inflammation; Action compared with levamisole (in words) [1]: superior to that of levamisole; Mortality at the end of 7 days (mice; [4]): 0; Mortality at the end of 7 days (mice; 300 mg/kg per os, 5 mice per lot): 3; Mortality at the end of 7 days (mice; 500 mg/kg per os, 5 mice per lot): 5; LD50 at 168 h (in vivo): 300 mg/kg

**Q.** What does the source list for `CCCCCCCCCCCC(=O)Nc1nc(-c2ccccc2)cs1` [F 1655]?
**A.** Solubility in DMA (Solubility): 25%; Solubility in methyl pyrrolidone (Solubility): 25%; Solubility in water (Solubility): insoluble; Mortality at the end of 7 days (mice; [5]): 0; LD50 at 168 h (in vivo): > 1000 mg/kg

**Q.** Which “Solubility in DMA” value (Solubility) does the source give for `CCCCCCCCCCCCCCCCCC(=O)Nc1nc(-c2ccccc2)cs1` [F 1656, 4-phenyl 2-stearamido thiazole] here?
**A.** 20%

**Q.** And the “Solubility in methyl pyrrolidone” value (Solubility)?
**A.** 20%

**Q.** And the Solubility in water (Solubility)?
**A.** insoluble

**Q.** And the “Mortality at the end of 7 days” value (mice; [5])?
**A.** 0

**Q.** What about the LD50 at 168 h (in vivo) of the same molecule?
**A.** > 1000 mg/kg

**Q.** Which results are given for `O=C(O)CCC(=O)Nc1nc(-c2ccccc2)cs1` [F 1657, N(4-phenyl 2-thiazolyl) succinamic acid]?
**A.** Solubility in DMA (Solubility): 20%; Solubility in methyl pyrrolidone (Solubility): 25%; Solubility in water (Solubility): insoluble; Mortality at the end of 7 days (mice; [5]): 0; LD50 at 168 h (in vivo): > 1000 mg/kg

**Q.** For `CCOC(=O)Nc1nc(-c2ccccc2)cs1` [F 1658, 4-phenyl 2-(ethoxycarboxamido) thiazole], which “Solubility in DMA” value (Solubility) is on record?
**A.** 25%

**Q.** What about the “Solubility in methyl pyrrolidone” value (Solubility) of the same molecule?
**A.** 25%

**Q.** What about the Solubility in water (Solubility) of the same molecule?
**A.** insoluble

**Q.** For `O=C(Nc1nc(-c2ccccc2)cs1)Oc1ccccc1` [F 1659, 4-phenyl 2-phenoxy carbamoyl thiazole], which “Solubility in DMA” value (Solubility) is on record?
**A.** 4%

**Q.** What about the “Solubility in methyl pyrrolidone” value (Solubility) of the same molecule?
**A.** 3%

**Q.** And the Solubility in water (Solubility)?
**A.** insoluble

**Q.** What about the “Mortality at the end of 7 days” value (mice; [5]) of the same molecule?
**A.** 0

**Q.** What about the LD50 at 168 h (in vivo) of the same molecule?
**A.** > 1000 mg/kg

**Q.** Which results are given for `O=C(Nc1nc(-c2ccc(Cl)cc2)cs1)OCC(Cl)(Cl)Cl` [F 1660, 4-parachlorophenyl 2-(2'-2'-2'-trichloroethoxycarbamido) thiazole]?
**A.** Solubility in DMA (Solubility): 20%; Solubility in methyl pyrrolidone (Solubility): 20%; Solubility in water (Solubility): insoluble; Mortality at the end of 7 days (mice; [5]): 0; LD50 at 168 h (in vivo): > 1000 mg/kg

**Q.** Which “Solubility in DMA” value (Solubility) does the source give for `O=C(O)CCC(=O)Nc1nc(-c2ccc(Cl)cc2)cs1` [F 1683, N(4-parachlorophenyl 2-thiazolyl) succinamic acid] here?
**A.** 20%

**Q.** What about the “Solubility in methyl pyrrolidone” value (Solubility) of the same molecule?
**A.** 20%

**Q.** What about the Solubility in water (Solubility) of the same molecule?
**A.** insoluble

**Q.** And the “Mortality at the end of 7 days” value (mice; [5])?
**A.** 0

**Q.** And the LD50 at 168 h (in vivo)?
**A.** > 1000 mg/kg

**Q.** With `O=C(Nc1nc(-c2ccccc2)cs1)c1cccnc1` [F 1684, N(4-phenyl 2-thiazolyl) nicotinamide] as the molecule, how does the “Solubility in DMA” value (Solubility) read?
**A.** 5%

**Q.** What about the “Solubility in methyl pyrrolidone” value (Solubility) of the same molecule?
**A.** 5%

**Q.** What about the Solubility in water (Solubility) of the same molecule?
**A.** insoluble

**Q.** And the “Mortality at the end of 7 days” value (mice; [5])?
**A.** 0

**Q.** What about the LD50 at 168 h (in vivo) of the same molecule?
**A.** > 1000 mg/kg

**Q.** For `O=C(Nc1nc(-c2ccc(Cl)cc2)cs1)c1cccnc1` [F 1685, N(4-parachlorophenyl 2-thiazolyl) nicotinamide], which “Solubility in DMA” value (Solubility) is on record?
**A.** 20%

**Q.** What about the “Solubility in methyl pyrrolidone” value (Solubility) of the same molecule?
**A.** 20%

**Q.** And the Solubility in water (Solubility)?
**A.** insoluble

**Q.** What about the “Mortality at the end of 7 days” value (mice; [5]) of the same molecule?
**A.** 0

**Q.** And the LD50 at 168 h (in vivo)?
**A.** > 1000 mg/kg

**Q.** For `O=C(Nc1nc(-c2ccccc2)cs1)OCC(Cl)(Cl)Cl` [F 1686, 4-phenyl-2-(2'-2'-2'-trichloroethoxycarboxamido) thiazole], which “Solubility in DMA” value (Solubility) is on record?
**A.** 25%

**Q.** What about the Solubility in ethanol (Solubility) of the same molecule?
**A.** 3%

**Q.** And the “Solubility in methyl pyrrolidone” value (Solubility)?
**A.** 20%

**Q.** And the Solubility in water (Solubility)?
**A.** insoluble

**Q.** What about the “Effect on the response to PPD (in words)” value ([2]; […], response of low intensity in controls (two to three weeks)) of the same molecule?
**A.** stimulate the response

**Q.** What about the “Effect on the response to PPD (in words)” value ([2]; after 5 and 6 weeks) of the same molecule?
**A.** do not modify it significantly any longer

**Q.** And the “Stimulation of the reaction to the PPD (in words)” value ([2]; dependence on immune state)?
**A.** does not stimulate the reaction to the PPD except when the guinea pigs are in a state of hypoimmunization

**Q.** And the NOAEL at 1460 h [3]?
**A.** ≤ 30 mg/kg/day

**Q.** What about the “Action on the number of mononuclears” value ([1]; Treatment procedure 1) of the same molecule?
**A.** -21%

**Q.** And the “Action on the number of polynuclears” value ([1]; Treatment procedure 1)?
**A.** -16%

**Q.** And the “Action on the total number of leukocytes” value ([1]; Treatment procedure 1)?
**A.** -19%

**Q.** What about the “Action on the volume of exudate” value ([1]; Treatment procedure 1) of the same molecule?
**A.** -35%

**Q.** And the “Action on the number of mononuclears” value ([1]; Treatment procedure 2)?
**A.** -29%

**Q.** And the “Action on the number of polynuclears” value ([1]; Treatment procedure 2)?
**A.** -6%

**Q.** What about the “Action on the total number of leukocytes” value ([1]; Treatment procedure 2) of the same molecule?
**A.** -22%

**Q.** And the “Action on the volume of exudate” value ([1]; Treatment procedure 2, 5 mg/kg)?
**A.** -50% and -42%

**Q.** What about the “Delayed hypersensitivity pleural inflammation (in words)” value [1] of the same molecule?
**A.** reduce the delayed hypersensitivity pleural inflammation

**Q.** What about the “Action compared with levamisole (in words)” value [1] of the same molecule?
**A.** superior to that of levamisole

**Q.** What about the “Mortality at the end of 7 days” value (mice; 1000 mg/kg per os, 10 mice per lot) of the same molecule?
**A.** 0

**Q.** And the LD50 at 168 h (in vivo)?
**A.** > 1000 mg/kg

**Q.** Which “Solubility in DMA” value (Solubility) does the source give for `O=C(Nc1nc(-c2ccc(Cl)cc2)cs1)Oc1ccccc1` [F 1687] here?
**A.** 5%

**Q.** What about the “Solubility in methyl pyrrolidone” value (Solubility) of the same molecule?
**A.** 5%

**Q.** And the Solubility in water (Solubility)?
**A.** insoluble

**Q.** And the “Mortality at the end of 7 days” value (mice; [5])?
**A.** 0

**Q.** And the LD50 at 168 h (in vivo)?
**A.** > 1000 mg/kg

**Q.** For `c1ccc([C@H]2CN3CCSC3=N2)cc1` [Levamisole, L-tetramisole, reference compound], which “Effect on the response to PPD (in words)” value ([2]; guinea pig, in vivo) is on record?
**A.** to a definitely lesser degree stimulate the response; also recorded: do not modify it significantly any longer

**Q.** And the “Action on the number of mononuclears” value ([1]; Treatment procedure 1)?
**A.** -11%

**Q.** What about the “Action on the number of polynuclears” value ([1]; Treatment procedure 1) of the same molecule?
**A.** -9%

**Q.** What about the “Action on the total number of leukocytes” value ([1]; Treatment procedure 1) of the same molecule?
**A.** -10%

**Q.** What about the “Action on the volume of exudate” value ([1]; Treatment procedure 1) of the same molecule?
**A.** -22%

**Q.** And the “Action on the number of mononuclears” value ([1]; Treatment procedure 2)?
**A.** -17%

**Q.** And the “Action on the number of polynuclears” value ([1]; Treatment procedure 2)?
**A.** -7%

**Q.** And the “Action on the total number of leukocytes” value ([1]; Treatment procedure 2)?
**A.** -13%

**Q.** And the “Action on the volume of exudate” value ([1]; Treatment procedure 2)?
**A.** -23%
